According to patent publication US12338237B2, “Derivatives having 1,2,3,4-tetrahydronaphthalene moiety or pharmaceutically acceptable salt thereof and pharmaceutical compositions comprising the same” (YUHAN CORPORATION, priority 2019, dated 2025):
Read-outs that look alike come from different tables or passages of the source.

Assays:
[1] = target: glucosylceramide synthase (GCS) (Homo sapiens (Human), UniProt Q16739); experiment: Evaluation of inhibitory activities against GCS (enzyme reaction with A549 cell lysate, NBD C6-ceramide, HPLC fluorescence); format: biochemical; settings: GCS activity in A549 cell lysate, 37° C. for 90 minutes
glucosylceramide synthase (GCS), sequence (Q16739 whole entry, looked up): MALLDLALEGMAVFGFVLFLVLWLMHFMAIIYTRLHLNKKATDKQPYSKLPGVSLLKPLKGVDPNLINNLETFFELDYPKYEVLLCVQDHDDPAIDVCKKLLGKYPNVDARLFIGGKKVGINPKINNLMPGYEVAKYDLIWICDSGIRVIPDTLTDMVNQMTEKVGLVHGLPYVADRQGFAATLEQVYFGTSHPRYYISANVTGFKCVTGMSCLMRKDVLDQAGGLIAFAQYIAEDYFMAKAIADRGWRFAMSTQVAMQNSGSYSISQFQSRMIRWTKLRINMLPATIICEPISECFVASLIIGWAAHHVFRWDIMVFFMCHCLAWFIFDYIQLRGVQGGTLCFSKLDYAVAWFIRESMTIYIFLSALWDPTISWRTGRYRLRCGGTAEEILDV
Method in brief: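 Lysate of A549 cells in 50 mM HEPES pH 7.3 incubated with test compound and NBD C6-ceramide at 37 °C for 90 min; lipids extracted with chloroform/methanol and GlcCer and ceramide peaks quantified by HPLC fluorescence. Activity from GlcCer area fraction, normalised between DMSO and ibiglustat controls.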

GM1 production = experiment: cells; format: cell-based

Compound	IC50 [1] [nM]	IC50 (GM1 production; read-out: IC50) [nM]	IC50 (GM1 production; Homo sapiens, Jurkat, 72 h) [nM]
COc1ccc(-c2cc3c(cc2F)C(NC(=O)O[C@@H]2CN4CCC2CC4)C(C)(C)CC3)cc1F (stereo partly drawn) [Example 227, (S)-quinuclidin-3-yl (7-fluoro-6-(3-fluoro-4-methoxyphenyll)-2,2-dimethyl-1,2,3,4-tetrahydronaphthalen-1-yl)carbamate]	0.5	12.8	
O=C(NC1CCCc2cc(-c3ccccc3OC(F)(F)F)ccc21)O[C@@H]1CN2CCC1CC2 (stereo partly drawn) [Example 12, (S)-quinuclidin-3-yl (6-(2-(trifluoromethoxy)phenyl)-1,2,3,4-tetrahydronaphthalen-1-yl)carbamate]	9.28		19.6
CCCOc1c(C)cc(-c2cc3c(cc2F)C(NC(=O)O[C@@H]2CN4CCC2CC4)C(C)(C)CC3)cc1C (stereo partly shown) [Example 228]	1.34	12.5	
COCCOc1cccc(-c2ccc3c(c2)CCC2(CC2)C3NC(=O)O[C@@H]2CN3CCC2CC3)c1 (stereo partly drawn) [Example 195, (S)-quinuclidin-3-yl (6′-(3-(2-methoxyethoxy)phenyl)-3′,4′-dihydro-1′H-spiro[cyclopropane-1,2′-naphthalen]-1′-yl)carbamate]	5.39		23.3
CCOc1cccc(-c2ccc3c(c2)CCC(C)(C)C3NC(=O)O[C@@H]2CN3CCC2CC3)c1 (stereo partly drawn) [Example 122, (S)-quinuclidin-3-yl (6-(3-ethoxyphenyl)-2,2-dimethyl-1,2,3,4-tetrahydronaphthalen-1-yl)carbamate]	3.38		0.774
O=C(NC1CCCc2ccc(-c3ccc(Cl)c(Cl)c3)cc21)O[C@@H]1CN2CCC1CC2 (stereo partly drawn) [Example 70, (S)-quinuclidin-3-yl (7-(3,4-dichlorophenyl)-1,2,3,4-tetrahydronaphthalen-1-yl)carbamate]	83.9		133
(S)-quinuclidin-3-yl (7-(3-(chlorophenyl)-1,2,3,4-tetrahydronaphthalen-1-yl)carbamate [Example 59]	18.9	153	
O=C(NC1CCCc2cc(-c3cccc(OC(F)(F)F)c3)ccc21)O[C@@H]1CN2CCC1CC2 (stereo partly drawn) [Example 8, (S)-quinuclidin-3-yl (6-(3-(trifluoromethoxy)phenyl)-1,2,3,4-tetrahydronaphthalen-1-yl)carbamate]	2.1		12.4
O=C(NC1c2cc(-c3ccccc3C(F)(F)F)ccc2CCC12CC2)O[C@@H]1CN2CCC1CC2 (stereo partly drawn) [Example 181, (S)-quinuclidin-3-yl (7′-(2-(trifluoromethyl)phenyl)-3′,4′-dihydro-1′H-spiro[cyclopropane-1,2′-naphthalen]-1′-yl)carbamate]	12.7		91.7
CCCOc1ccc(-c2ccc3c(c2)CCC(C)(C)C3NC(=O)O[C@@H]2CN3CCC2CC3)cc1F (stereo partly drawn) [Example 145, (S)-quinuclidin-3-yl (6-(3-fluoro-4-propoxyphenyl)-2,2-dimethyl-1,2,3,4-tetrahydronaphthalen-1-yl)carbamate]	0.87		0.7
O=C(NC1c2cc(-c3ccccc3Cl)ccc2CCC12CC2)O[C@@H]1CN2CCC1CC2 (stereo partly drawn) [Example 180, (S)-quinuclidin-3-yl (7′-(2-chlorophenyl)-3′,4′-dihydro-1′H-spiro[cyclopropane-1,2′-naphthalen]-1′-yl)carbamate]	9.54		99.1
COCCOc1ccc(-c2ccc3c(c2)CCC(C)(C)C3NC(=O)O[C@@H]2CN3CCC2CC3)cc1 (stereo partly drawn) [Example 110, (S)-quinuclidin-3-yl (6-(4-(2-methoxyethoxy)phenyl)-2,2-dimethyl-1,2,3,4-tetrahydronaphthalen-1-yl)carbamate]	0.64		0.29
CC1(C)CCc2ccc(-c3ccc(Cl)cc3)cc2C1NC(=O)O[C@@H]1CN2CCC1CC2 (stereo partly drawn) [Example 152, (S)-quinuclidin-3-yl (7-(4-chlorophenyl)-2,2-dimethyl-1,2,3,4-tetrahydronaphthalen-1-yl)carbamate]	5.72		25.9
COc1cc(-c2ccc3c(c2)CCC(C)(C)C3NC(=O)O[C@@H]2CN3CCC2CC3)ccn1 (stereo partly drawn) [Example 116, (S)-quinuclidin-3-yl (6-(2-methoxypyridin-4-yl)-2,2-dimethyl-1,2,3,4-tetrahydronaphthalen-1-yl)carbamate]	8.62		7.76
CC(C)c1cccc(-c2ccc3c(c2)CCC2(CC2)C3NC(=O)O[C@@H]2CN3CCC2CC3)c1 (stereo partly drawn) [Example 205, (S)-quinuclidin-3-yl (6′-(3-isopropylphenyl)-3′,4′-dihydro-1′H-spiro[cyclopropane-1,2′-naphthalen]-1′-yl)carbamate]	34.2		44.3
CC(C)Oc1ccc(-c2ccc3c(c2)CCC(C)(C)C3NC(=O)O[C@@H]2CN3CCC2CC3)cc1F (stereo partly drawn) [Example 142, (S)-quinuclidin-3-yl (6-(3-fluoro-4-isopropoxyphenyl)-2,2-dimethyl-1,2,3,4-tetrahydronaphthalen-1-yl)carbamate]	1.11		3.4

Compound	IC50 [1] [nM]	IC50 (GM1 production; read-out: IC50) [nM]	IC50 (GM1 production; Homo sapiens, Jurkat, 72 h) [nM]
COc1ccc(-c2ccc3c(c2)C(NC(=O)O[C@@H]2CN4CCC2CC4)CCC3)cc1 (stereo partly drawn) [Example 80, (S)-quinuclidin-3-yl (7-(4-methoxyphenyl)-1,2,3,4-tetrahydronaphthalen-1-yl)carbamate]	15.4		225
COc1cc(OC)cc(-c2ccc3c(c2)CCC(C)(C)C3NC(=O)O[C@@H]2CN3CCC2CC3)c1 (stereo partly drawn) [Example 138, (S)-quinuclidin-3-yl (6-(3,5-dimethoxyphenyl)-2,2-dimethyl-1,2,3,4-tetrahydronaphthalen-1-yl)carbamate]	1.19		3.8
CCCOc1ccc(-c2ccc3c(c2)CCC2(CC2)C3NC(=O)O[C@@H]2CN3CCC2CC3)cc1 (stereo partly drawn) [Example 220, (S)-quinuclidin-3-yl (6′-(4-propoxyphenyl)-3′,4′-dihydro-1′H-spiro[cyclopropane-1,2′-naphthalen]-1′-yl) carbamate]	0.63	6.7	
CC1(C)CCc2ccc(-c3cccc(OC(F)(F)F)c3)cc2C1NC(=O)O[C@@H]1CN2CCC1CC2 (stereo partly drawn) [Example 158, (S)-quinuclidin-3-yl (2,2-dimethyl-7-(3-(trifluoromethoxy)phenyl)-1,2,3,4-tetrahydronaphthalen-1-yl)carbamate]	34.2		249
CC1(C)CCc2cc(-c3ccnc(F)c3)ccc2C1NC(=O)O[C@@H]1CN2CCC1CC2 (stereo partly drawn) [Example 118, (S)-quinuclidin-3-yl (6-(2-fluoropyridin-4-yl)-2,2-dimethyl-1,2,3,4-tetrahydronaphthalen-1-yl)carbamate]	17		12.4
CC1(C)CCc2cc(-c3cccc(OC(F)(F)F)c3)ccc2C1NC(=O)O[C@@H]1CN2CCC1CC2 (stereo partly drawn) [Example 93, (S)-quinuclidin-3-yl (2,2-dimethyl-6-(3-(trifluoromethoxy)phenyl)-1,2,3,4-tetrahydronaphthalen-1-yl)carbamate]	1.76		0.388
CCOc1ccccc1-c1ccc2c(c1)C(NC(=O)O[C@@H]1CN3CCC1CC3)CCC2 (stereo partly drawn) [Example 76, (S)-quinuclidin-3-yl (7-(2-ethoxyphenyl)-1,2,3,4-tetrahydronaphthalen-1-yl)carbamate]	18.7		156
CC(C)c1ccc(-c2ccc3c(c2)CCC2(CC2)C3NC(=O)O[C@@H]2CN3CCC2CC3)cc1 (stereo partly drawn) [Example 223, (S)-quinuclidin-3-yl (6′-(4-isopropylphenyl)-3′,4′-dihydro-1′H-spiro[cyclopropane-1,2′-naphthalen]-1′-yl)carbamate]	2.4		24.1
O=C(NC1c2ccc(-c3ccc(F)cc3)cc2CCC12CC2)O[C@@H]1CN2CCC1CC2 (stereo partly drawn) [Example 186, (S)-quinuclidin-3-yl (6′-(4-fluorophenyl)-3′,4′-dihydro-1′H-spiro[cyclopropane-1,2′-naphthalen]-1′-yl)carbamate]	24.4		79.8
O=C(NC1CCCc2cc(-c3cc(F)cc(F)c3)ccc21)O[C@@H]1CN2CCC1CC2 (stereo partly drawn) [Example 17, (S)-quinuclidin-3-yl (6-(3,5-difluorophenyl)-1,2,3,4-tetrahydronaphthalen-1-yl)carbamate]	5.75		37
O=C(NC1c2cc(-c3ccc(OC(F)F)cc3)ccc2CCC12CC2)O[C@@H]1CN2CCC1CC2 (stereo partly drawn) [Example 184, (S)-quinuclidin-3-yl (7′-(4-(difluoromethoxy)phenyl)-3′,4′-dihydro-1′H-spiro[cyclopropane-1,2′-naphthalen]-1′-yl)carbamate]	7.52		87
COCOc1cccc(-c2ccc3c(c2)CCC2(CC2)C3NC(=O)O[C@@H]2CN3CCC2CC3)c1 (stereo partly drawn) [Example 198, (S)-quinuclidin-3-yl (6′-(3-(methoxymethoxy)phenyl)-3′,4′-dihydro-1′H-spiro[cyclopropane-1,2′-naphthalen]-1′-yl)carbamate]	5.17		8.68
CC1(C)CCc2cc(-c3ccc(Cl)c(Cl)c3)ccc2C1NC(=O)O[C@@H]1CN2CCC1CC2 (stereo partly drawn) [Example 106, (S)-quinuclidin-3-yl (6-(3,4-dichlorophenyl)-2,2-dimethyl-1,2,3,4-tetrahydronaphthalen-1-yl)carbamate]	4.05		3.33
CCCCc1ccc(-c2ccc3c(c2)CCCC3NC(=O)O[C@@H]2CN3CCC2CC3)cc1 (stereo partly drawn) [Example 33, (S)-quinuclidin-3-yl (6-(4-butylphenyl)-1,2,3,4-tetrahydronaphthalen-1-yl)carbamate]	3.95		499
(S)-quinuclidin-3-yl (2,2-dimethyl-7-(2-(p-tolyl)-1,2,3,4-tetrahydronaphthalen-1-yl)carbamate [Example 163]	15.3	55.1	
O=C(NC1CCCc2ccc(-c3cccnc3)cc21)O[C@@H]1CN2CCC1CC2 (stereo partly drawn) [Example 73, (S)-quinuclidin-3-yl (7-(pyridin-3-yl)-1,2,3,4-tetrahydronaphthalen-1-yl)carbamate]	359		587
